The text below walks through data of ChEMBL document CHEMBL4004825 (J Med Chem, 2017).

Activity calls are given as the source filed them. The calls are words filed in the database; no cut-off is given here. A value given as a limit tells only on which side of the number the result lay.

A short description of data set [1]: Stability in rat liver microsomes. The settings on record: read-out: Stability. Format: ADME, microsome.
A short description of data set [2]: Half-life in human whole blood at 1 uM by LC-MS/MS analysis. The class given is ADME.
A short description of data set [3]: Half-life in Sprague-Dawley rat blood at 1 uM by LC-MS/MS analysis. The class given is ADME, tissue-based.
Data set [4] has as its target Tyrosine-protein kinase JAK2 (Homo sapiens, UniProt O60674). The experiment in a line: Inhibition of recombinant human GST-tagged cytoplasmic JAK2 catalytic domain (809 to 1153+9 residues) expressed in baculovirus expression system using FITC-KGGEEEEYFELVKK as substrate in presence of 1 mM ATP by microfluidic assay.
A short description of data set [5]: Permeability in RRCK cells. Format: ADME, cell-based, Canis lupus familiaris, MDCKII-LE. Conditions: dog, MDCK; read-out: permeability.
Data set [6] is described as follows: Clearance in rat in absence of CYP450 inhibitor ABT. The class given is ADME.
Data set [7] deals with Mus musculus. The experiment in a line: Anti-inflammatory activity in po dosed sheep RBC-sensitized BALB/c mouse model of delayed-type hypersensitivity assessed as reduction in right hind foot pad thickness administered once daily for 7 days pretreated for 1 day followed by SRBC challenge and subsequent compound treatment for 6 days measured 24 hrs post SRBC rechallenge on day 6. The class given is functional, organism-based.

The nature of data set [8]: Stability in human liver microsomes. Format: ADME, microsome. Conditions: read-out: Stability.
For data set [9], the target named is T1, Tyrosine-protein kinase JAK1 (Homo sapiens, UniProt P23458). The experiment in a line: Inhibition of recombinant human GST-tagged cytoplasmic JAK1 catalytic domain (866 to 1154 residues) expressed in baculovirus expression system using 5FAM-KKSRGDYMTMQID as substrate in presence of 40 uM ATP by microfluidic assay.
In data set [10] the target is T1, Tyrosine-protein kinase JAK1. The experiment in a line: Inhibition of recombinant human GST-tagged cytoplasmic JAK1 catalytic domain (866 to 1154 residues) expressed in baculovirus expression system using 5FAM-KKSRGDYMTMQID as substrate in presence of 1 mM ATP by microfluidic assay.
The target in data set [11] is Non-receptor tyrosine-protein kinase TYK2 (Homo sapiens, UniProt P29597). The experiment in a line: Inhibition of recombinant human His-tagged TYK2 expressed in baculovirus infected sf21 cells using 5FAM-KKSRGDYMTMQID as substrate in presence of 1 mM ATP by microfluidic assay.
The nature of data set [12]: Clearance in rat in presence of CYP450 inhibitor ABT. The settings on record: with ABT (CYP450 inhibitor). The class given is ADME.
Data set [13] is described as follows: Stability in human whole blood assessed as GST-mediated clearance by measuring half-life at 1 uM by LC-MS/MS analysis. Format: ADME.
For data set [14], the target named is T2, Tyrosine-protein kinase JAK3 (Homo sapiens, UniProt P52333).
T2 sequence (P52333 whole entry): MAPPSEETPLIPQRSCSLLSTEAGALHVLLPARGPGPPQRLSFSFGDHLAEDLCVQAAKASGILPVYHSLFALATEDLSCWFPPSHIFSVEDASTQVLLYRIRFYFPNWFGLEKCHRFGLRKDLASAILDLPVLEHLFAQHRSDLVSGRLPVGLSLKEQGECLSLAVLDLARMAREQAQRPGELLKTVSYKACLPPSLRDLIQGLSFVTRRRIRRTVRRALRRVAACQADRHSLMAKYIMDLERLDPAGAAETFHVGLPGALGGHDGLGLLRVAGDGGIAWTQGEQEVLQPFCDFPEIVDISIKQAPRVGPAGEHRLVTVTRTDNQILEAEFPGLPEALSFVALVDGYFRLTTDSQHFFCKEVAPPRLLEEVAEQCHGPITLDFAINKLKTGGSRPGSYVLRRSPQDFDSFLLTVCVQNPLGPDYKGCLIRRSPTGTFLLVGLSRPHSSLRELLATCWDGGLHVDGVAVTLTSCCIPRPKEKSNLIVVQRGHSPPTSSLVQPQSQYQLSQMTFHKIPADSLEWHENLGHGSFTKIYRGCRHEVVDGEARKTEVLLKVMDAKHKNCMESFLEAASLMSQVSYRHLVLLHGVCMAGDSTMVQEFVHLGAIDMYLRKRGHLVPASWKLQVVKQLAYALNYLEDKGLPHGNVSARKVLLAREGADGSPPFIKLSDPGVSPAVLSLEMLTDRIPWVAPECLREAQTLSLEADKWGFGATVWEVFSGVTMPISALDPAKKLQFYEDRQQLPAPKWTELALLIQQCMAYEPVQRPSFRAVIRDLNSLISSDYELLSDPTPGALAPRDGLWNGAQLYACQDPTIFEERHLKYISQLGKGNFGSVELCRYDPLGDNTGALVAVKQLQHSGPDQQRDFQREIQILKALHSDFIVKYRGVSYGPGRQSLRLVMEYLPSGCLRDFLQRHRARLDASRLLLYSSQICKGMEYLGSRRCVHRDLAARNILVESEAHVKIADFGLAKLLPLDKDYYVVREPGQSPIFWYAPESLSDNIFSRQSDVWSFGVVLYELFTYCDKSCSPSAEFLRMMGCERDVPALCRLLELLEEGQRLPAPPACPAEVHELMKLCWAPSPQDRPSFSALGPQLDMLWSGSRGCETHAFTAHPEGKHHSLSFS
The experiment in a line: Inhibition of JAK3 in human whole blood assessed as inhibition of IL-15 induced STAT5 phosphorylation preincubated for 45 mins followed by IL-15 addition and measured after 15 mins by Alexa Fluor 647 staining based flow cytometric analysis.

The target of data set [15] is T2, Tyrosine-protein kinase JAK3. The experiment in a line: Inhibition of recombinant human GST-tagged cytoplasmic JAK3 catalytic domain (781 to 1124 residues) expressed in baculovirus expression system using FITC-KGGEEEEYFELVKK as substrate in presence of 1 mM ATP by microfluidic assay.
Data set [16] shares this target. The experiment in a line: Inhibition of JAK3 in human PBMC assessed as inhibition of IL-15 induced STAT5 phosphorylation preincubated for 75 mins followed by IL-15 addition and measured after 15 mins by Alexa Fluor 647 staining based flow cytometry.
Data set [17] has as its system Mus musculus. The experiment in a line: Anti-inflammatory activity in sheep RBC-sensitized BALB/c mouse model of delayed-type hypersensitivity assessed as reduction in right hind foot pad thickness at 30 mg/kg, po administered twice daily for 7 days pretreated for 1 day followed by SRBC challenge and subsequent compound treatment for 6 days measured 24 hrs post SRBC rechallenge on day 6. Format: functional, organism-based.

For data set [18], the target named is T2, Tyrosine-protein kinase JAK3. The experiment in a line: Inhibition of recombinant human GST-tagged cytoplasmic JAK3 catalytic domain (781 to 1124 residues) expressed in baculovirus expression system using FITC-KGGEEEEYFELVKK as substrate in presence of 4 uM ATP by microfluidic assay.

T1 sequence (P23458 whole entry, the tested form may be a part): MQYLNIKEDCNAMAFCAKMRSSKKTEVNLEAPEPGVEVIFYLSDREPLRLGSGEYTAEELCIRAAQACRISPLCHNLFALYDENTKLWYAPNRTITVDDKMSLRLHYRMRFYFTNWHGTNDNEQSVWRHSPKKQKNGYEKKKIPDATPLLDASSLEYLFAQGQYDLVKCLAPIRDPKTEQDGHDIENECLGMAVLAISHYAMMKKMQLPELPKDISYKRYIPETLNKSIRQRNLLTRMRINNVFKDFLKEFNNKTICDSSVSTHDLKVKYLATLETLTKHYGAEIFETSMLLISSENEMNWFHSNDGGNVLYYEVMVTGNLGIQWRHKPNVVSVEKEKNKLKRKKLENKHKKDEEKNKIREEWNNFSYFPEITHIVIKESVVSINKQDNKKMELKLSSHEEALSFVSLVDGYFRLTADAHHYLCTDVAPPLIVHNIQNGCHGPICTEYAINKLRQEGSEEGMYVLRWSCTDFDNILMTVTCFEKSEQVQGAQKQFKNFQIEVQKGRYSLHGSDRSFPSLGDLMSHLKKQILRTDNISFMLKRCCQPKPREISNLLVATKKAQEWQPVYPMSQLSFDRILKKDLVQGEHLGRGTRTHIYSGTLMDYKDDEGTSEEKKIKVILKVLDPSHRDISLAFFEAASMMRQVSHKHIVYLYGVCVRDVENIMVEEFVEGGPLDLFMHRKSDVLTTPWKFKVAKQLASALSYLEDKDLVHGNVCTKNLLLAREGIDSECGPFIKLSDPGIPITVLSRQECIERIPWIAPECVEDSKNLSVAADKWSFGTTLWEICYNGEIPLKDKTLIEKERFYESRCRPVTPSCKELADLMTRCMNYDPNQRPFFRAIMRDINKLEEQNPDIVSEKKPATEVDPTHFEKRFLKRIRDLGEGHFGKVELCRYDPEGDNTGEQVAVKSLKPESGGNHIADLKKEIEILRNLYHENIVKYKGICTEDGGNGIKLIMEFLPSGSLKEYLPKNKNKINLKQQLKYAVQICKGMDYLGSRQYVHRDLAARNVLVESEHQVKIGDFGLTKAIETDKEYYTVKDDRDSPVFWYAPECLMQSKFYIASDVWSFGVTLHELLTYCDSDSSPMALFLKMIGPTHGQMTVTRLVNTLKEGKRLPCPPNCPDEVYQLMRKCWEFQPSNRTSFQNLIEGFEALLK
Tyrosine-protein kinase JAK2, sequence (O60674 whole entry, the tested form may be a part): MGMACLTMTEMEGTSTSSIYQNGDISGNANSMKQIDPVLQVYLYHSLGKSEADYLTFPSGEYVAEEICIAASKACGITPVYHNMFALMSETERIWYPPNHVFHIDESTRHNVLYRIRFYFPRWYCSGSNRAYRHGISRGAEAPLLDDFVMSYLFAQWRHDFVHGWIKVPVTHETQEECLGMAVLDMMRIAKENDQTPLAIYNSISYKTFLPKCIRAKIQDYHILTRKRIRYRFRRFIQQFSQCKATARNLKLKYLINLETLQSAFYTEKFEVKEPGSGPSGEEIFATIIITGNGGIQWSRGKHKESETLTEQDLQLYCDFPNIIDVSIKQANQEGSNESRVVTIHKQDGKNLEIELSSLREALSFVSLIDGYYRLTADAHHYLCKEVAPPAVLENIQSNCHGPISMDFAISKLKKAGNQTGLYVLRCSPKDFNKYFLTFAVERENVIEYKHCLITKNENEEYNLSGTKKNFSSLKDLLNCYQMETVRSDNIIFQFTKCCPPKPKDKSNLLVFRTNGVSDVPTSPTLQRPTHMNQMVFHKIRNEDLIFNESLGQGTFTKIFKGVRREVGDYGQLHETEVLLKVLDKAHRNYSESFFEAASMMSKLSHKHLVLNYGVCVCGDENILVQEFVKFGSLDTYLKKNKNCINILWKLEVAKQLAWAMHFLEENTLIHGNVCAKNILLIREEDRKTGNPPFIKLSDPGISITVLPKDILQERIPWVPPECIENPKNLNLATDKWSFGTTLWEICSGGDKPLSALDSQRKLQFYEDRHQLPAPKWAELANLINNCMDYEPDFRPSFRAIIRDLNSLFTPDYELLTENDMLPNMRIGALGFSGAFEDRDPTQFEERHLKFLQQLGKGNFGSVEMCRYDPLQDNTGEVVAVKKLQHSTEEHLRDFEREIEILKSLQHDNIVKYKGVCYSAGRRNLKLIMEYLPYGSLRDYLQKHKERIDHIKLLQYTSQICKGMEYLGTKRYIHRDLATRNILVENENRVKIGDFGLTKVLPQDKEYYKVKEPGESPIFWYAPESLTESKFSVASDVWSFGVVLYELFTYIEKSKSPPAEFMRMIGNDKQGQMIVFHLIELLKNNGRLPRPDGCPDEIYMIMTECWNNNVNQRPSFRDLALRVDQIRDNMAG
Non-receptor tyrosine-protein kinase TYK2, sequence (P29597 whole entry): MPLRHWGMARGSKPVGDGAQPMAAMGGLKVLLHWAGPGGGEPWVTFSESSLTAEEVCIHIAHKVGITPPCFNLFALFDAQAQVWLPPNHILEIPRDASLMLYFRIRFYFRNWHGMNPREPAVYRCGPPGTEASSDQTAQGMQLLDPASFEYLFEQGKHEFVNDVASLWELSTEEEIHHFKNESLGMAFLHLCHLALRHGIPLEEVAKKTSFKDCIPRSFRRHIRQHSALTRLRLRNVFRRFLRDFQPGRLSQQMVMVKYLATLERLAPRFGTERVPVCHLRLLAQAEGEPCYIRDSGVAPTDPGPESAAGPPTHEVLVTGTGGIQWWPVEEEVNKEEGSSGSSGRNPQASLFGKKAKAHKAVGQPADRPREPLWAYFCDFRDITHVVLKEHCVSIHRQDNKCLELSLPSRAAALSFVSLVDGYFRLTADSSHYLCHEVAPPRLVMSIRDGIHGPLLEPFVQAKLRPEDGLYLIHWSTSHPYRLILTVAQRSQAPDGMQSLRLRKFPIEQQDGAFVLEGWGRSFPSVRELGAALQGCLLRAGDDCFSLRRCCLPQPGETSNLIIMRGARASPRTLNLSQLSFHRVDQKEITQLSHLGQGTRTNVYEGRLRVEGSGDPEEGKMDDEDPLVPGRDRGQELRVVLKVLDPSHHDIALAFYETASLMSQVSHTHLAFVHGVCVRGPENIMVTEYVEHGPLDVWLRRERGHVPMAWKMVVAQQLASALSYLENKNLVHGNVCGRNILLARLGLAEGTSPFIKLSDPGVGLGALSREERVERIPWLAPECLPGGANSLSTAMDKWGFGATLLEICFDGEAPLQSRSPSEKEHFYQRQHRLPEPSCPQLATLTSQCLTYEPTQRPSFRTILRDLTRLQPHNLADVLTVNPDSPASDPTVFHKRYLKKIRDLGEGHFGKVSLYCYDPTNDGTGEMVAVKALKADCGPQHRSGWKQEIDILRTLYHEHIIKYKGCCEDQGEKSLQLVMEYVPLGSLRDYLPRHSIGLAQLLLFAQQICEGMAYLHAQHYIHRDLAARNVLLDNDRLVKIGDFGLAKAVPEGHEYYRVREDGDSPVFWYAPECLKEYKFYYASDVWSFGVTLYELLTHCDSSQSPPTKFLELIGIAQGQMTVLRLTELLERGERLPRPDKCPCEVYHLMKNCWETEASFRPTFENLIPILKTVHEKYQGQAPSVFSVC

For the molecule `C=CC(=O)N1CC[C@H]2CCN(c3ncnc4[nH]ccc34)[C@H]2C1`, the figures for the microsomal CLint in data set [1] and in data set [8] were 70 µL/min/mg and 12.2 µL/min/mg, respectively. Besides, the half-life at 1 µM in [2] came to 3.2 h; in data set [3], 2.73 h. In addition, the IC50 in data set [4] is greater than 10 µM; in data set [9] it was 0.984 µM; in [10], greater than 10 µM; in [11], greater than 10 µM. Besides, the Papp in [5] came to 20 ×10⁻⁶ cm/s. Further, the clearance is 109 mL/min/kg in data set [6] and 81 mL/min/kg in data set [12]. Further, the Activity entry in data set [7] is “Dose-dependent effect”.

With `C=CC(=O)N1C[C@@H](C)C[C@@H](Nc2ncnc3[nH]ccc23)C1` (single isomer, unassigned), the half-life at 1 µM in data set [13] was greater than 4.17 h.

`C=CC(=O)N1CCC[C@@H](Nc2ncnc3[nH]ccc23)C1`: the IC50 in data set [14] is 0.58 µM; in data set [4], greater than 10 µM; in [15], 0.056 µM; in data set [9], 1.4 µM; in [10] it was greater than 10 µM; in data set [11] it was greater than 10 µM. The IC50 in [16] was 0.107 µM. Also, the microsomal CLint is less than 15 µL/min/mg in data set [1] and 8 µL/min/mg in [8]. The half-life at 1 µM in [2] is 5.53 h; in [3] it was 1.63 h. In data set [5], the Papp is 8 ×10⁻⁶ cm/s.

Regarding `C[C@@H]1CCN(C(=O)CC#N)C[C@@H]1N(C)c1ncnc2[nH]ccc12`, the result in [17] was Active.

Consider `C/C=C/C(=O)N1CCC[C@@H](Nc2ncnc3[nH]ccc23)C1`, for which the IC50 was greater than 10 µM in [4]; greater than 10 µM in [15]; 1.61 µM in [18]; 2.29 µM in data set [9]; greater than 10 µM in data set [10]; greater than 10 µM in data set [11].

As to `C=CC(=O)N1CCC[C@@H](N(C)c2ncnc3[nH]ccc23)C1`, the IC50 in data set [4] was greater than 10 µM; in [15], 3.84 µM; in data set [18], 0.018 µM; in data set [9], 1.15 µM; in data set [10] it was 7.82 µM; in [11], greater than 10 µM.

With `C=CC(=O)N1CC[C@@H](C)[C@@H](N(C)c2ncnc3[nH]ccc23)C1`, the concentration for half-maximal inhibition (IC50) is 2.03 µM in [4]; 1.93 µM in data set [15]; 0.274 µM in data set [9]; 0.988 µM in data set [10]; greater than 10 µM in data set [11].

`C=CC(=O)N1CC[C@H](C)[C@@H](Nc2ncnc3[nH]ccc23)C1`: in data set [13], the half-life at 1 µM is greater than 5 h.

As for `C=CC(=O)Nc1cccc(-c2ncnc3[nH]ccc23)c1`, the IC50 is 2.28 µM in [14]; greater than 10 µM in data set [4]; 0.029 µM in data set [15]; 0.0003 µM in [18]; 0.966 µM in [9]; 8.71 µM in data set [10]. In addition, the IC50 is greater than 10 µM in [11] and 0.032 µM in [16].

Consider `C=CC(=O)N1CCC[C@@H](Nc2ncnc3[nH]ccc23)[C@H]1C` (racemic), for which the half-life at 1 µM in data set [13] was greater than 6 h. Besides, in data set [15], the IC50 was greater than 1 µM.

On to `CC(=O)N1CC[C@H]2CCN(c3ncnc4[nH]ccc34)[C@H]2C1`, for which the values for the microsomal CLint in [1] and in [8] were 25 µL/min/mg and less than 8 µL/min/mg, respectively. Moreover, the IC50 was greater than 10 µM in data set [4]; greater than 10 µM in [15]; 0.372 µM in [18]; 0.863 µM in [9]; greater than 10 µM in [10]; greater than 10 µM in [11]. For the same molecule, in [5], the Papp is 16 ×10⁻⁶ cm/s. Further, the clearance was 76 mL/min/kg in data set [6] and 10 mL/min/kg in data set [12].
